Source: patent US20180200279A1, “INHIBITION OF HSV-1-ASSOCIATED CORNEAL NEOVASCULARIZATION USING INHIBITORS OF CYCLIN-DEPENDENT KINASE 9” (XAVIER UNIVERSITY OF LOUISIANA, priority 2014, published 2018)

Assays:
HUVEC = assay: Endothelial cell transwell migration assay; type: cell-based, human; settings: 16 hours
Experimental: Migration/invasion assays were performed using 24-well, 8-μm pore size BD Biocoat Matrigel migration chambers according to the manufacturer's instructions (BD Biosciences, San Jose, Calif.). […] Cells were allowed to migrate for 16 hours at 37° C. Following incubation, cotton swabs were used to remove the cells on the top surface of the membrane, and cells on the bottom side of the membrane were fixed with 4% formaldehyde for 30 min, washed 3-5 times with PBS, and then stained with 10 μM Calcein AM (migration) or 10 μM Celltracker green-labeled (invasion). Migrating or invading cells from three repeats in two independent experiments were then counted using an inverted microscope. Data are expressed as mean percent migration and mean percent invading cells compared with untreated cells±SEM.
Cell migration induced by chemoattractant angiogenic factors such as bFGF and VEGF is an important step in the angiogenic process. […] Data presented as percent fluorescence normalized to control untreated cells (100% migration).

[1] = test system: corneal neovascularization due to alkali burn; assay: Corneal neovascularization due to chemical (NaOH) burn in mice; type: in vivo, Balb C mice; settings: 0.01% FP 5× daily; four days post injury; 0.15N NaOH for 15 seconds
Experimental: Following chemical treatment of mouse eyes with 0.15N NaOH, control and treated eyes were scored for neovascularization using the formula A=(C×0.4×L×pi)/2; where C=clock hours of neovascularization; 30° arc is 1 (360° L is the length of the longest neovessel, and A is the area of neovascularization. Animals were scored using a slit-lamp microscope, and images representative of each group were taken. One day post injury, flavopirodol reduced neovascularization to the level observed in undamaged and in damaged but prednisone-treated eyes.
To determine whether FP would reduce corneal neovascularization due to chemical injury in a mouse model system, female Balb C mice (7 per group) were treated in their right eyes with 0.15N NaOH for 15 seconds and the left eye was not treated with NaOH. […] Neovascularization was scored using the formula A=(C×0.4×L×pi)/2; where C=clock hours of neovascularization; 30° arc is 1 (360° L is the length of the longest neovessel, and A is the area of neovascularization. Animals were scored in a masked fashion using a slit-lamp microscope, and images representative of each group were taken. The longest possible length of a neovessel is 1.6 mm and the greatest possible arc is 12/12 hours.

Compound: CN1CC[C@H](c2c(O)cc(O)c3c(=O)cc(-c4ccccc4Cl)oc23)[C@H](O)C1 [flavopiridol]
- percent migration normalized to untreated control cells (100%) (HUVEC; 100 nM flavopiridol): 74.99%±2.35
- percent migration normalized to untreated control cells (100%) (HUVEC; 150 nM flavopiridol): 25.08±1.79%
- corneal neovascularization after alkali burn (slit-lamp area score) [1]: reduced neovascularization due to alkali burn to the level observed in undamaged and in damaged but prednisone-treated eyes
